# PubChem BioAssay (NCI)
#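 Five concentrations, 48 hours, 96-well plates. At the GI50, growth is halved. The concentration for full growth arrest is given as TGI.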
# Experiments:
# Experiment in all cases: growth of human tumour cells (NCI), 48 h
# [1] = system: HS 578T breast
# [2] = system: RPMI-8226 leukemia
# [3] = system: IGROV1 ovarian
# [4] = system: K-562 leukemia
# [5] = system: M14 melanoma
# [6] = system: OVCAR-3 ovarian
# [7] = system: SW-620 colon
# [8] = system: 786-0 renal
# [9] = system: SK-MEL-2 melanoma
# [10] = system: NCI-H226 lung
SMILES,GI50 [1] [µM],TGI [1] [µM],GI50 [2] [nM],TGI [2] [µM],GI50 [3] [nM],TGI [3] [µM],GI50 [4] [nM],TGI [4] [µM],GI50 [5] [nM],TGI [5] [µM],GI50 [6] [nM],TGI [6] [µM],GI50 [7] [nM],TGI [7] [µM],GI50 [8] [nM],TGI [8] [µM],GI50 [9] [nM],TGI [9] [µM],GI50 [10] [nM],TGI [10] [µM]
C=C1C(=O)O[C@H]2[C@H]1CC/C(COC(=O)CCSCCC(=O)OC/C1=C/CC[C@@]3(C)O[C@H]3[C@H]3OC(=O)C(=C)[C@@H]3CC1)=C\CC[C@@]1(C)O[C@@H]21,3.18,24.5,383,1.83,1300,3.25,371,10.2,1520,3.35,451,1.69,556,2.02,904,2.21,2180,4.88,3000,8.96
COc1cccc(/C=N/NC(=S)NC2CC3CCC2C3)c1O (stereo not given),4.27,22.2,11100,49.7,10000,35.1,7620,> 100,9920,31.9,3070,9.45,13700,> 100,19500,39.6,18200,34.9,2380,10.9
S=C(Nc1ccc(N=Nc2ccccc2)cc1)SCc1ccccc1,–,61.5,–,33.3,–,32.6,–,39.9,–,37.6,–,29.4,–,44.5,–,38,–,50,–,39
Cc1cc2cc3ccc(N(C)C)cc3nc2cc1N,0.51,3.48,637,5.55,528,2.9,418,> 21,682,2.14,502,2.45,334,1.92,597,2.47,392,1.6,584,3.6
CC(C)N1CCN(Cc2ccc3c(NNC(=O)c4ccccc4)nc4cc(F)ccc4n23)CC1,4.23,26.9,476,3.18,406,14.1,379,3.87,230,3.28,289,6.79,463,2.12,323,6.01,2780,20.8,534,8.18
CCOc1cc(Br)c(C(C)NC(=O)c2cccc(OC)c2)cc1OCC (stereo not given),15.5,> 96.6,13900,> 92.1,22300,> 100,3600,> 100,4380,> 100,5420,38.7,4600,> 100,20400,> 100,5540,> 76.7,21400,> 100
O=C(O)c1cn(C2CC2)c2cc(N3CCN(C(=O)Nc4nc(-c5ccccc5)cs4)CC3)c(F)cc2c1=O,0.861,72.1,826,7.41,1200,> 100,2050,> 100,2060,> 100,582,16.5,3200,> 100,592,16.9,1850,6.42,2960,57.5
S=c1[nH]nc(Cc2ccccc2)c(=S)[nH]1,–,> 100,–,> 100,–,> 100,–,> 100,–,> 100,–,> 100,–,> 100,–,> 100,–,> 76.9,–,> 100
